Data reported in ChEMBL document CHEMBL3045925 (Med Chem Res, 2013).
Converted amounts (≈) assume the structure as drawn. The source made the active and inactive calls. The rule behind the calls is not given here.

Key:
[1] = test system: Radical scavenging activity; test: Antioxidant activity assessed as DPPH free radical scavenging activity at 125 ug/mL after 30 min by spectrophotometric analysis; format: functional
[2] = Antioxidant activity assessed as reduction of Fe3+ to Fe2+ measured Fe2+ equivalent per gram dry mass after 4 min by spectrophotometric analysis; format: functional
[3] = Antioxidant activity assessed as reduction of Cu2+ to Cu+ at 125 to 1000 ug/mL after 30 min by spectrophotometric analysis; format: functional
[4] = test system: Radical scavenging activity; test: Antioxidant activity assessed as DPPH free radical scavenging activity at 1000 ug/mL after 30 min by spectrophotometric analysis; format: functional
[5] = test system: Radical scavenging activity; test: Antioxidant activity assessed as DPPH free radical scavenging activity at 500 ug/mL after 30 min by spectrophotometric analysis; format: functional
[6] = test system: Radical scavenging activity; test: Antioxidant activity assessed as DPPH free radical scavenging activity at 250 ug/mL after 30 min by spectrophotometric analysis; format: functional
[7] = test system: Shigella flexneri; test: Antibacterial activity against Shigella flexneri MTCC 1457 assessed as growth inhibition after 24 hr by two-fold serial dilution method; format: functional; details: MTCC 1457, 24 h
[8] = test system: Bacillus subtilis; test: Antibacterial activity against Bacillus subtilis MTCC 441 assessed as growth inhibition after 24 hr by two-fold serial dilution method; format: functional; details: MTCC 441, 24 h
[9] = test system: Staphylococcus epidermidis; test: Antibacterial activity against Staphylococcus epidermidis MTCC 3615 assessed as growth inhibition after 24 hr by two-fold serial dilution method; format: functional; details: MTCC 3615, 24 h
[10] = test system: Staphylococcus aureus; test: Antibacterial activity against Staphylococcus aureus MTCC 96 assessed as growth inhibition after 24 hr by two-fold serial dilution method; format: functional; details: MTCC 96, 24 h
[11] = test system: Micrococcus luteus; test: Antibacterial activity against Micrococcus luteus assessed as growth inhibition after 24 hr by two-fold serial dilution method; format: functional
[12] = test system: Escherichia coli; test: Antibacterial activity against Escherichia coli ESBL 3984 clinical isolate assessed as growth inhibition after 24 hr by two-fold serial dilution method; format: functional; details: ESBL 3984, 24 h
[13] = test system: Escherichia coli; test: Antibacterial activity against Escherichia coli ESBL 3904 clinical isolate assessed as growth inhibition after 24 hr by two-fold serial dilution method; format: functional; details: ESBL 3904, 24 h
[14] = test system: Klebsiella pneumoniae; test: Antibacterial activity against Klebsiella pneumoniae ESBL 3971 clinical isolate assessed as growth inhibition after 24 hr by two-fold serial dilution method; format: functional; details: ESBL 3971, 24 h
[15] = test system: Klebsiella pneumoniae; test: Antibacterial activity against Klebsiella pneumoniae ESBL 3967 clinical isolate assessed as growth inhibition after 24 hr by two-fold serial dilution method; format: functional; details: ESBL 3967, 24 h
[16] = test system: Klebsiella pneumoniae; test: Antibacterial activity against Klebsiella pneumoniae ESBL 75799 clinical isolate assessed as growth inhibition after 24 hr by two-fold serial dilution method; format: functional; details: ESBL 75799, 24 h
[17] = test system: Klebsiella pneumoniae; test: Antibacterial activity against Klebsiella pneumoniae ESBL 3894 clinical isolate assessed as growth inhibition after 24 hr by two-fold serial dilution method; format: functional; details: ESBL 3894, 24 h
[18] = test system: Staphylococcus aureus; test: Antibacterial activity against methicillin-resistant Staphylococcus aureus clinical isolate assessed as growth inhibition after 24 hr by two-fold serial dilution method; format: functional
[19] = test system: Salmonella typhimurium; test: Antibacterial activity against Salmonella enterica subsp. enterica serovar Typhimurium MTCC 1251 assessed as growth inhibition after 24 hr by two-fold serial dilution method; format: functional; details: MTCC 1251, 24 h
[20] = test system: Pseudomonas aeruginosa; test: Antibacterial activity against Pseudomonas aeruginosa MTCC 741 assessed as growth inhibition after 24 hr by two-fold serial dilution method; format: functional; details: MTCC 741, 24 h
[21] = test system: Salmonella enterica subsp. enterica serovar Paratyphi B; test: Antibacterial activity against Salmonella enterica subsp. enterica serovar Paratyphi B assessed as growth inhibition after 24 hr by two-fold serial dilution method; format: functional
[22] = test system: Scopulariopsis; test: Antifungal activity against Scopulariopsis sp. 101/01 assessed as growth inhibition after 48 to 72 hr by two-fold serial dilution method; format: functional
[23] = test system: Trichophyton mentagrophytes; test: Antifungal activity against Trichophyton mentagrophytes 66/01 assessed as growth inhibition after 48 to 72 hr by two-fold serial dilution method; format: functional
[24] = test system: Trichophyton rubrum; test: Antifungal activity against Trichophyton rubrum 57/01 assessed as growth inhibition after 48 to 72 hr by two-fold serial dilution method; format: functional
[25] = test system: Botrytis cinerea; test: Antifungal activity against Botryotinia fuckeliana assessed as growth inhibition after 48 to 72 hr by two-fold serial dilution method; format: functional
[26] = test system: Candida albicans; test: Antifungal activity against Candida albicans MTCC 227 assessed as growth inhibition after 48 to 72 hr by two-fold serial dilution method; format: functional
[27] = test system: COLO 320; test: Cytotoxicity against Homo sapiens (human) COLO320 cells by MTT assay
[28] = Antioxidant activity assessed as reduction of Cu2+ to Cu+ after 30 min by spectrophotometric analysis; format: functional
[29] = test system: COLO 320; test: Cytotoxicity against Homo sapiens (human) COLO320 cells at 10 ug/mL by MTT assay; format: functional
[30] = test system: COLO 320; test: Cytotoxicity against Homo sapiens (human) COLO320 cells at 50 ug/mL by MTT assay; format: functional
[31] = test system: COLO 320; test: Cytotoxicity against Homo sapiens (human) COLO320 cells at 25 ug/mL by MTT assay; format: functional
[32] = test system: COLO 320; test: Cytotoxicity against Homo sapiens (human) COLO320 cells at 100 ug/mL by MTT assay; format: functional
[33] = test system: COLO 320; test: Cytotoxicity against Homo sapiens (human) COLO320 cells at 200 ug/mL by MTT assay; format: functional
[34] = test system: Malassezia pachydermatis; test: Antifungal activity against Malassezia pachydermatis assessed as growth inhibition after 48 to 72 hr by two-fold serial dilution method; format: functional
[35] = test system: Aspergillus flavus; test: Antifungal activity against Aspergillus flavus assessed as growth inhibition after 48 to 72 hr by two-fold serial dilution method; format: functional

Structure (SMILES)	Activity [1] [%]	Activity [2] [mMequiv]	Activity [4] [%]	Activity [5] [%]	Activity [6] [%]	MIC [7] [µg/mL]	MIC [8] [µg/mL]	MIC [9] [µg/mL]	MIC [10] [µg/mL]	MIC [11] [µg/mL]	MIC [12] [µg/mL]	MIC [13] [µg/mL]	MIC [14] [µg/mL]	MIC [15] [µg/mL]	MIC [16] [µg/mL]	MIC [17] [µg/mL]	MIC [18] [µg/mL]	MIC [19] [µg/mL]	MIC [20] [µg/mL]	MIC [21]	also measured
Cc1cc(C(C)(C)C)c(O)c(C(C)(C)C)c1	60.9	2.21	90.1	80.9	71.7																Activity [3]: Active
CN[C@@H]1[C@H](O[C@H]2[C@H](O[C@H]3[C@H](O)[C@@H](O)[C@H](N=C(N)N)[C@@H](O)[C@@H]3N=C(N)N)O[C@@H](C)[C@]2(O)C=O)O[C@@H](CO)[C@H](O)[C@H]1O [STREPTOMYCIN]						6.25 (≈ 10.7 µM)	25 (≈ 43 µM)	25 (≈ 43 µM)	6.25 (≈ 10.7 µM)	6.25 (≈ 10.7 µM)	25 (≈ 43 µM)	25 (≈ 43 µM)	6.25 (≈ 10.7 µM)	25 (≈ 43 µM)	25 (≈ 43 µM)	6.25 (≈ 10.7 µM)	6.25 (≈ 10.7 µM)	30 (≈ 51.6 µM)	25 (≈ 43 µM)	inactive	
COc1cc(/C=C/C(=O)NCCCCNC(=O)/C=C/c2ccc(O)c(OC)c2)ccc1O [TERRESTRIBISAMIDE]	40.2	0.808	88.3	84.6	68.3	> 200	200 (≈ 454 µM)	200 (≈ 454 µM)	> 200	200 (≈ 454 µM)	200 (≈ 454 µM)	200 (≈ 454 µM)	> 200	> 200	> 200	> 200	> 200	> 200	> 200	> 200 µg/mL	MIC [22]: > 200 µg/mL; MIC [23]: > 200 µg/mL; MIC [24]: > 200 µg/mL; MIC [25]: > 200 µg/mL; MIC [26]: 200 µg/mL (≈ 454 µM); IC50 [27]: 50 µg/mL (≈ 114 µM); Activity [28]: Dose-dependent effect; Activity [29]: 9.655%; Activity [30]: 51.195%; Activity [31]: 21.609%; Activity [32]: 64.827%; Activity [33]: 83.218%; MIC [34]: 200 µg/mL (≈ 454 µM); MIC [35]: > 200 µg/mL
CC(=O)N1CCN(c2ccc(OCC3COC(Cn4ccnc4)(c4ccc(Cl)cc4Cl)O3)cc2)CC1 (configuration not stated) [KETOCONAZOLE]																					MIC [22]: < 12.5 µg/mL; MIC [23]: < 12.5 µg/mL; MIC [24]: < 12.5 µg/mL; MIC [25]: < 12.5 µg/mL; MIC [26]: 25 µg/mL (≈ 47 µM); MIC [34]: 12.5 µg/mL (≈ 23.5 µM); MIC [35]: < 12.5 µg/mL
